Test results taken from patent publication EP0051687A1, “Maleimides and process for the preparation of same” (MITSUI TOATSU CHEMICALS, Inc., priority 1980, dated 1982).

Test: Solubility in organic solvents at room temperature
Type: physicochemical

CC(C)(c1ccc(O)cc1)c1ccc(N2C(=O)C=CC2=O)cc1 [2-(4'-hydroxyphenyl)-2-(4"-maleimidophenyl) propane]
Solubility of 2-(4'-hydroxyphenyl)-2-(4"-maleimidophenyl) propane (at room temperature ) (Organic Solvent: Acetone): 50 wt.% or higher | Solubility of 2-(4'-hydroxyphenyl)-2-(4"-maleimidophenyl) propane (at room temperature ) (Organic Solvent: Dimethylformamide): 50 wt.% or higher | Solubility of 2-(4'-hydroxyphenyl)-2-(4"-maleimidophenyl) propane (at room temperature ) (Organic Solvent: Dioxane): 36 wt.% | Solubility of 2-(4'-hydroxyphenyl)-2-(4"-maleimidophenyl) propane (at room temperature ) (Organic Solvent: Ethanol): 11 wt.% | Solubility of 2-(4'-hydroxyphenyl)-2-(4"-maleimidophenyl) propane (at room temperature ) (Organic Solvent: Methanol): 20 wt.% | Solubility of 2-(4'-hydroxyphenyl)-2-(4"-maleimidophenyl) propane (at room temperature ) (Organic Solvent: Methyl ethyl ketone): 46 wt.% | Solubility of 2-(4'-hydroxyphenyl)-2-(4"-maleimidophenyl) propane (at room temperature ) (Organic Solvent: Tetrahydrofuran): 50 wt.% or higher
